pIC50: −log10 of the molar value. “Also recorded” adds a separate entry of the source. Read-outs that look alike come from different tables or passages of the source.
Tests used:
folate receptors (FRs) = biological target: T1, folate receptors (FRs) (Homo sapiens, UniProt P15328); test: Relative affinity assay (3H-folic acid displacement on KB cells); assay type: binding; conditions: compared to folic acid (relative affinity=1), 10% serum/FDRPMI
T1 construct: FR-positive KB cells were heavily seeded into 24-well cell culture plates; endogenous in cells; host or cells: KB cells (human cervical carcinoma)
Description: Relative Affinity Assay. The affinity for folate receptors (FRs) relative to folate was determined according to a previously described method (Westerhof, G. R., J. H. Schornagel, et al. (1995) Mol. Pharm. 48: 459-471) with slight modification. Briefly, FR-positive KB cells were heavily seeded into 24-well cell culture plates and allowed to adhere to the plastic for 18 h. Spent incubation media was replaced in designated wells with folate-free RPMI (FFRPMI) supplemented with 100 nM ^3H-folic acid in the absence and presence of increasing concentrations of test article or folic acid. Cells were incubated for 60 min at 37° C. and then rinsed 3 times with PBS, pH 7.4. Five hundred microliters of 1% SDS in PBS, pH 7.4, were added per well. Cell lysates were then collected and added to individual vials containing 5 mL of scintillation cocktail, and then counted for radioactivity. Negative control tubes contained only the ^3H-folic acid in FFRPMI (no competitor). Positive control tubes contained a final concentration of 1 mM folic acid, and CPMs measured in these samples (representing non-specific binding of label) were subtracted from all samples.

[1] = tested on: folate receptor-positive KB cells
Description: Inhibition of Cellular DNA Synthesis. The compounds described herein were evaluated using an in vitro cytotoxicity assay that predicts the ability of the drug to inhibit the growth of folate receptor-positive KB cells. The compounds were comprised of folate linked to a respective chemotherapeutic drug, as prepared according to the protocols described herein. The KB cells were exposed for up to 7 h at 37° C. to the indicated concentrations of folate-drug conjugate in the absence or presence of at least a 100-fold excess of folic acid. The cells were then rinsed once with fresh culture medium and incubated in fresh culture medium for 72 hours at 37° C. Cell viability was assessed using a ^3H-thymidine incorporation assay.
(§1) In vitro test against the various cancer cell lines. Cells are heavily seeded in 24-well Falcon plates and allowed to form nearly confluent monolayers overnight. Thirty minutes prior to the addition of the test compound, spent medium is aspirated from all wells and replaced with fresh folate-deficient RPMI medium (FFRPMI). A subset of wells are designated to receive media containing 100 μM folic acid. The cells in the designated wells are used to determine the targeting specificity. […] Following one rinse with 1 mL of fresh FFRPMI containing 10% heat-inactivated fetal calf serum, each well receives 1 mL of medium containing increasing concentrations of test compound (4 wells per sample) in the presence or absence of 100 μM free folic acid as indicated. Treated cells are pulsed for 2 h at 37° C., rinsed 4 times with 0.5 mL of media, and then chased in 1 mL of fresh medium up to 70 h. Spent medium is aspirated from all wells and replaced with fresh medium containing 5 μCi/mL ^3H-thymidine. Following a further 2 h 37° C. incubation, cells are washed 3 times with 0.5 mL of PBS and then treated with 0.5 mL of ice-cold 5% trichloroacetic acid per well. After 15 min, the trichloroacetic acid is aspirated and the cell material solubilized by the addition of 0.5 mL of 0.25 N sodium hydroxide for 15 min. A 450 μL aliquot of each solubilized sample is transferred to a scintillation vial containing 3 mL of Ecolume scintillation cocktail and then counted in a liquid scintillation counter. Final tabulated results are expressed as the percentage of ^3H-thymidine incorporation relative to untreated controls.
(§2) Folate receptor expressing cells. […] EC1456 was evaluated from 0.1-100 nM.

NCI/ADR-RES-Cl2 = test: In vitro test against cancer cell lines, NCI/ADR-RES-Cl2; assay type: cell-based, Human
Description: as §1, with “Following a further 2 h 37° C. incubation, cells are washed 3 times with 0.5 mL of PBS and then treated with 0.5 mL of ice-cold 5% trichloroacetic acid per well. After 15 min, the trichloroacetic acid is aspirated and the cell material solubilized by the addition of 0.5 mL of 0.25 N sodium hydroxide for 15 min.” left out
as §2

IGROV1 = test: In vitro test against cancer cell lines, IGROV1; assay type: cell-based, Human
Description: as §1, with “Following a further 2 h 37° C. incubation, cells are washed 3 times with 0.5 mL of PBS and then treated with 0.5 mL of ice-cold 5% trichloroacetic acid per well. After 15 min, the trichloroacetic acid is aspirated and the cell material solubilized by the addition of 0.5 mL of 0.25 N sodium hydroxide for 15 min.” left out
as §2

MDA-MB-231 = test: In vitro test against cancer cell lines, MDA-MB-231; assay type: cell-based, Human
Description: as §1, with “Following a further 2 h 37° C. incubation, cells are washed 3 times with 0.5 mL of PBS and then treated with 0.5 mL of ice-cold 5% trichloroacetic acid per well. After 15 min, the trichloroacetic acid is aspirated and the cell material solubilized by the addition of 0.5 mL of 0.25 N sodium hydroxide for 15 min.” left out
as §2

A549 = test: In vitro test against cancer cell lines, A549; assay type: cell-based, Human; conditions: A549, FR status −; evaluated from 0.1-100 nM
Description: as §1, with “Following a further 2 h 37° C. incubation, cells are washed 3 times with 0.5 mL of PBS and then treated with 0.5 mL of ice-cold 5% trichloroacetic acid per well. After 15 min, the trichloroacetic acid is aspirated and the cell material solubilized by the addition of 0.5 mL of 0.25 N sodium hydroxide for 15 min.” left out
as §2

H23 = test: In vitro test against cancer cell lines, H23; assay type: cell-based, Human; conditions: H23, FR status −; evaluated from 0.1-100 nM
Description: as §1, with “Following a further 2 h 37° C. incubation, cells are washed 3 times with 0.5 mL of PBS and then treated with 0.5 mL of ice-cold 5% trichloroacetic acid per well. After 15 min, the trichloroacetic acid is aspirated and the cell material solubilized by the addition of 0.5 mL of 0.25 N sodium hydroxide for 15 min.” left out
as §2

HepG2 = test: In vitro test against cancer cell lines, HepG2; assay type: cell-based, Human; conditions: HepG2, FR status −; evaluated from 0.1-100 nM
Description: as §1, with “Following a further 2 h 37° C. incubation, cells are washed 3 times with 0.5 mL of PBS and then treated with 0.5 mL of ice-cold 5% trichloroacetic acid per well. After 15 min, the trichloroacetic acid is aspirated and the cell material solubilized by the addition of 0.5 mL of 0.25 N sodium hydroxide for 15 min.” left out
as §2

AN3CA = test: In vitro test against cancer cell lines, AN3CA; assay type: cell-based, Human; conditions: FR status −, evaluated from 0.1-100 nM
Description: as §1, with “Following a further 2 h 37° C. incubation, cells are washed 3 times with 0.5 mL of PBS and then treated with 0.5 mL of ice-cold 5% trichloroacetic acid per well. After 15 min, the trichloroacetic acid is aspirated and the cell material solubilized by the addition of 0.5 mL of 0.25 N sodium hydroxide for 15 min.” left out
as §2

LNCaP = test: In vitro test against cancer cell lines, LNCaP; assay type: cell-based, Human; conditions: FR status −, evaluated from 0.1-100 nM, read-out: EC1456 Activity (IC50)
Description: as §1, with “Following a further 2 h 37° C. incubation, cells are washed 3 times with 0.5 mL of PBS and then treated with 0.5 mL of ice-cold 5% trichloroacetic acid per well. After 15 min, the trichloroacetic acid is aspirated and the cell material solubilized by the addition of 0.5 mL of 0.25 N sodium hydroxide for 15 min.” left out
as §2

MDA-MB-231 tumors = test: Established subcutaneous MDA-MB-231 breast cancer xenograft; assay type: in vivo, mice; conditions: three times per week
Text: Inhibition of Tumor Growth in Mice.
Toxicity as Measured by Weight Loss.
Triple negative breast cancer (TNBC) is a subtype characterized by lack of gene expression for estrogen, progesterone and Her2/neu. TNBC is difficult to treat, and its death rate is disproportionately higher than for any other subtype of breast cancer.

KB-CR tumors = test: Cisplatin-resistant KB-CR tumor model; assay type: in vivo; conditions: 2 μmol/kg i.v., three times per week (M/W/F), 2 weeks
Description: Toxicity as Measured by Weight Loss. The percentage weight change of the mice was determined in mice (5 mice/group) on selected days post-tumor inoculation (PTI), and graphed.

T1 sequence (P15328 25-234): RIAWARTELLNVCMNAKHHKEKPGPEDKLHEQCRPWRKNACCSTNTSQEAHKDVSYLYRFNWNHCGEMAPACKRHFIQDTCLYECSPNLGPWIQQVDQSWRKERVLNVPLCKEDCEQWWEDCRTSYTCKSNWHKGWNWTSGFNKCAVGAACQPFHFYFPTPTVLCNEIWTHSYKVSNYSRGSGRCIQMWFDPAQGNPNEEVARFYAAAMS

For `CCCC(=O)OCN(C(=O)[C@@H](NC(=O)[C@H]1CCCCN1C)[C@@H](C)CC)[C@H](C[C@@H](OC(C)=O)c1nc(C(=O)N[C@@H](Cc2ccc(O)cc2)C[C@H](C)C(=O)NNC(=O)OCCSSC[C@@H](NC(=O)[C@H](CCC(=O)NC[C@H](O)[C@@H](O)[C@H](O)[C@H](O)CO)NC(=O)[C@@H](CCC(=O)O)NC(=O)[C@H](CCC(=O)NC[C@H](O)[C@@H](O)[C@H](O)[C@H](O)CO)NC(=O)[C@@H](CCC(=O)O)NC(=O)[C@H](CCC(=O)NC[C@H](O)[C@@H](O)[C@H](O)[C@H](O)CO)NC(=O)CC[C@@H](NC(=O)c2ccc(NCc3cnc4nc(N)[nH]c(=O)c4n3)cc2)C(=O)O)C(=O)O)cs1)C(C)C` [EC1456], the “Relative Affinity” value (folate receptors (FRs)) was 0.27, the “improvement in specificity compared to EC0531” value [1] was 4 fold and the “Competable up to 100 nM” value ([1]; KB) was “Yes”. The “In vitro specificity (fold)” value ([1]; difference in IC50 between competed and non-competed group) was 944 fold, the “specificity for the folate receptor as determined by folic acid competition” value ([1]; difference in IC50 between competed group and non-competed group) was “ca. 1000 fold” and the pIC50 ([1]; read-out: 50% competition, competed group (excess folic acid)) was 5.85. The pIC50 ([1]; read-out: EC1456 Activity (IC50), KB, FR status +++, evaluated from 0.1-100 nM) was 8.64, the pIC50 ([1]; read-out: In vitro IC50) was 8.82 and the “Competable up to 100 nM” value (NCI/ADR-RES-Cl2; NCI/ADR-RES-Cl2) was “Yes”. For the same compound, the pIC50 (NCI/ADR-RES-Cl2; NCI/ADR-RES-Cl2, FR status ++, evaluated from 0.1-100 nM, read-out: EC1456 Activity (IC50)) was 8.85, the “Competable up to 100 nM” value (IGROV1; IGROV1) was “Yes” and the pIC50 (IGROV1; IGROV1, FR status +, evaluated from 0.1-100 nM, read-out: EC1456 Activity (IC50)) was 9.14. The “Competable up to 100 nM” value (MDA-MB-231; MDA-MB-231) was “Yes”, the pIC50 (MDA-MB-231; MDA-MB-231, FR status +, evaluated from 0.1-100 nM, read-out: EC1456 Activity (IC50)) was 9.33 and the “EC1456 Activity (IC50)” value (A549) was “Inactive”. The “EC1456 Activity (IC50)” value (H23) was “Inactive”, the “EC1456 Activity (IC50)” value (HepG2) was “Inactive” and the “EC1456 Activity (IC50)” value (AN3CA) was “Inactive”. The pIC50 (LNCaP) was ~6.07, the “weight loss / gross whole animal toxicity (% weight change)” value (MDA-MB-231 tumors; 2 μmmol/kg i.v., 2 weeks) was “did not cause gross whole animal toxicity; also recorded: not accompanied by significant weight loss” and the cures (MDA-MB-231 tumors; 2 μmmol/kg intravenous, 2 consecutive weeks) was 4 of 5. For the same compound, the complete responses (KB-CR tumors) was “⅕”, the cures (KB-CR tumors) was “⅘” and the “weight loss / host animal toxicity” value (KB-CR tumors) was “did not exhibit significant host animal toxicity; also recorded: did not cause any weight loss”.

Source: patent publication US20140107316A1, “DRUG DELIVERY CONJUGATES CONTAINING UNNATURAL AMINO ACIDS AND METHODS FOR USING” (priority 2012, published 2014)
